Among the test systems are SW-620 colon; OVCAR-8 ovarian; NCI-H460 lung; HCT-15 colon; UO-31 renal; SR leukemia; U251 CNS; MALME-3M melanoma.
Test in all cases: NCI tumour cell line growth inhibition, 48 h

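Cells were grown in 96-well plates and exposed to each compound for 48 hours at five concentrations; endpoints were interpolated linearly between bracketing concentrations, or set to the highest concentration if not reached. TGI is the concentration that stops growth completely.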

Results on 14 compounds are retold here after PubChem BioAssay (NCI).

As to `C/C(=N\N=C(N)N)c1c(C(=O)OCCCCCCOC(=O)c2nc3sccn3c2/C(C)=N/N=C(N)N)nc2sccn12`, the TGI with SW-620 colon was over 100 µM; with OVCAR-8 ovarian, over 100 µM; in the assay with NCI-H460 lung, over 100 µM; in the assay with HCT-15 colon, over 100 µM; in the assay on UO-31 renal it was over 100 µM; with SR leukemia, 41.2 µM. The TGI in the assay with U251 CNS and in the assay on MALME-3M melanoma was over 100 µM in each case.
As to `O=C1c2cc3c(cc2CC12Cc1cc4c(cc1C2)CCC4)CCC3`, the TGI with SW-620 colon, in the assay on OVCAR-8 ovarian, in the assay on NCI-H460 lung, in the assay with HCT-15 colon, with UO-31 renal and in the assay with SR leukemia was over 100 µM throughout. The TGI with U251 CNS and with MALME-3M melanoma was over 100 µM each time.
For the compound `CCOC(=O)C1C/C(C)=C(/C)SCCCS1` (centres undefined), the TGI with SW-620 colon, with OVCAR-8 ovarian, in the assay with NCI-H460 lung, in the assay on HCT-15 colon, in the assay with UO-31 renal and in the assay on SR leukemia was over 100 µM each time. In addition, the TGI with U251 CNS and in the assay with MALME-3M melanoma was over 100 µM in each case.
As for `Cc1ccc(Nc2nc(=O)[nH]c(=O)[nH]2)cc1N`, the TGI with SW-620 colon, in the assay with OVCAR-8 ovarian, in the assay on NCI-H460 lung, in the assay on HCT-15 colon, with SR leukemia and in the assay with U251 CNS was over 100 µM in each case. Further, the TGI in the assay with MALME-3M melanoma is over 100 µM.
Take `CCOC(=O)c1cc(-c2ccc(OC)c(OC)c2)c[nH]1`: the TGI with OVCAR-8 ovarian, in the assay on NCI-H460 lung, with HCT-15 colon, with UO-31 renal, in the assay with SR leukemia and in the assay with U251 CNS was over 10 µM in each case. The TGI with MALME-3M melanoma was over 10 µM.
Turning to `Cc1ccc2ccccc2c1CC1S(=O)(=O)OCCOS1(=O)=O`, the TGI with OVCAR-8 ovarian was 37.1 µM; in the assay with NCI-H460 lung, 27.4 µM; in the assay with HCT-15 colon it was 42.9 µM; in the assay on UO-31 renal, 27.1 µM; in the assay with SR leukemia, 24.9 µM; in the assay on U251 CNS, 24.7 µM. In addition, in the assay on MALME-3M melanoma, the TGI worked out at 25.2 µM.
For `c1ccc2c3c(ccc2c1)CSCc1ccc2ccccc2c1-3`, the TGI in the assay with OVCAR-8 ovarian, in the assay with HCT-15 colon, with UO-31 renal, in the assay on SR leukemia, with U251 CNS and in the assay on MALME-3M melanoma was over 100 µM each time.
For `CCCCCCCCCCCCOC1C(COCCN2CCCC2)OC2OC(C)(C)OC21` (centres undefined), the TGI in the assay on OVCAR-8 ovarian is 3.03 µM; with HCT-15 colon, 3.17 µM; with UO-31 renal, 2.96 µM; in the assay on SR leukemia it was 2.91 µM; in the assay with U251 CNS, 3.12 µM; with MALME-3M melanoma, 3.35 µM.
With `O=C1C/C(=C\O)C(=O)c2ccccc2N1`, the TGI in the assay on OVCAR-8 ovarian, with NCI-H460 lung, in the assay with HCT-15 colon, in the assay on UO-31 renal, with SR leukemia and in the assay with U251 CNS was over 100 µM each time. The TGI in the assay with MALME-3M melanoma was over 100 µM.
As to `CC1(C)OC[C@@H](/C=C\CCO[Si](c2ccccc2)(c2ccccc2)C(C)(C)C)N1C(=O)c1ccccc1`, the TGI with SW-620 colon is over 100 µM; with OVCAR-8 ovarian, over 100 µM; in the assay with NCI-H460 lung, 17.3 µM; in the assay on HCT-15 colon, over 100 µM; in the assay with UO-31 renal, 36.5 µM; in the assay with SR leukemia, 23.7 µM. Besides, in the assay with U251 CNS, the TGI is 45.5 µM.
With `CCCCC[C@H](O)[C@H](C)C=C1SCCCS1`, the TGI in the assay on SW-620 colon, in the assay on OVCAR-8 ovarian, with HCT-15 colon, with UO-31 renal, in the assay on SR leukemia and in the assay on U251 CNS was over 100 µM each time. In the assay with MALME-3M melanoma, this compound returned a TGI of over 100 µM.
Consider `CC(C)=CC(=O)O[C@@H]1CC(C)(C)CC2C3=CCC4[C@]56CC[C@](O)(OC5)C(C)(C)C6CC[C@@]4(C)C3(C)CC[C@]21C(=O)O` (some centres undefined), for which the TGI in the assay with SW-620 colon, in the assay on OVCAR-8 ovarian, in the assay on NCI-H460 lung, in the assay on HCT-15 colon, with SR leukemia and in the assay with U251 CNS was over 100 µM throughout. In addition, the TGI with MALME-3M melanoma is over 100 µM.
`[N-]=[N+]=NC1(c2ccccc2)C(=O)Nc2ccccc2C1=O` (centres undefined): the TGI in the assay with SW-620 colon was 82.4 µM; in the assay on NCI-H460 lung, over 100 µM; with HCT-15 colon, over 100 µM; with UO-31 renal it was 73.8 µM; in the assay on SR leukemia, over 100 µM; with U251 CNS, over 100 µM. In the assay with MALME-3M melanoma, this compound displayed a TGI of over 100 µM.
With `N#Cc1c(=O)c2cccnc2n2c1[nH]c1ccccc12`, the TGI in the assay with SW-620 colon, in the assay on OVCAR-8 ovarian, in the assay with NCI-H460 lung, with HCT-15 colon, in the assay with UO-31 renal and in the assay with SR leukemia was over 100 µM throughout. In the assay on U251 CNS, this compound registered a TGI of over 100 µM.
